Results taken from US20200024278A1, “COMPOSITION COMPRISING ANTIBIOTIC COMPOUND AND AN HETEROCYCLIC COMPOUND AND THEIR USE IN PREVENTING OR TREATING BACTERIAL INFECTIONS” (MUTABILIS, priority 2016, published 2020).

Assays:
Assay in all cases: MIC, broth microdilution (CLSI), substance alone or ATB combined with compound at 4 or 8 μg/mL
KPN UFR42 = format: cell-based, K. pneumoniae; settings: KPN UFR42
Procedure, shortened: (§1)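 Per CLSI-M7-A7, MICs are determined in cation-adjusted Mueller-Hinton broth with a final inoculum of 5·10^5 CFU/mL. Plates incubate 16-20 h at 35° C in air and are read by eye. Fosfomycin assays carry 25 μg/ml glucose-6-phosphate.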

KPN BAA-1898 = format: cell-based, K. pneumoniae; settings: KPN BAA-1898
Procedure, shortened: as §1

PAE UFR48 = format: cell-based, P. aeruginosa; settings: PAE UFR48
Procedure, shortened: as §1

PAE UFR90 = format: cell-based, P. aeruginosa; settings: PAE UFR90
Procedure, shortened: as §1

PAE 105250 = format: cell-based, P. aeruginosa; settings: PAE 105250
Procedure, shortened: as §1

ECL P99 = format: cell-based, E. cloacae; settings: ECL P99
Procedure, shortened: as §1

CN(C)c1cc(NC(=O)CNC(C)(C)C)c(O)c2c1C[C@H]1C[C@H]3[C@H](N(C)C)C(O)=C(C(N)=O)C(=O)[C@@]3(O)C(O)=C1C2=O [TGC]
MIC ATB combined with Example 11 @8 μg/ml (KPN UFR42; with Example 11 at 8 μg/ml): <0.031 µg/mL | MIC ATB combined with Example 12 @8 μg/ml (KPN UFR42; with Example 12 at 8 μg/ml): <0.031 µg/mL | MIC ATB combined with Example 13 @8 μg/ml (KPN UFR42; with Example 13 at 8 μg/ml): 2 µg/mL | MIC ATB combined with Example 14 @8 μg/ml (KPN UFR42; with Example 14 at 8 μg/ml): <0.031 µg/mL | MIC ATB combined with Example 15 @4 μgml (KPN UFR42; with Example 15 at 4 μg/ml): <0.031 µg/mL | MIC ATB combined with Example 16 @4 μg/ml (KPN UFR42; with Example 16 at 4 μg/ml): <0.031 µg/mL | MIC ATB alone (KPN BAA-1898; antibiotic alone): 1 µg/mL | MIC ATB combined with Example 1 @8 μg/ml (KPN BAA-1898; with Example 1 @8 μg/ml): 1 µg/mL | MIC ATB combined with Example 1 @8 μg/ml (KPN BAA-1898; with Example 1 at 8 μg/ml): 1 µg/mL | MIC ATB combined with Example 7 @8 μgml (KPN BAA-1898; with Example 7 at 8 μg/ml): 1 µg/mL | MIC ATB combined with Example 9 @4 μg/ml (KPN BAA-1898; with Example 9 @4 μg/ml): <0.031 µg/mL | MIC ATB combined with Example 9 @4 μg/ml (KPN BAA-1898; with Example 9 at 4 μg/ml): <0.031 µg/mL | MIC ATB combined with Example 11 @8 μg/ml (KPN BAA-1898; with Example 11 at 8 μg/ml): <0.031 µg/mL | MIC ATB combined with Example 12 @8 μg/ml (KPN BAA-1898; with Example 12 at 8 μg/ml): <0.031 µg/mL | MIC ATB combined with Example 13 @8 μg/ml (KPN BAA-1898; with Example 13 at 8 μg/ml): 1 µg/mL | MIC ATB combined with Example 14 @8 μg/ml (KPN BAA-1898; with Example 14 at 8 μg/ml): <0.031 µg/mL | MIC ATB combined with Example 15 @4 μgml (KPN BAA-1898; with Example 15 at 4 μg/ml): <0.031 µg/mL | MIC ATB combined with Example 16 @4 μg/ml (KPN BAA-1898; with Example 16 at 4 μg/ml): <0.031 µg/mL | MIC ATB alone (PAE UFR48; antibiotic alone): 32 µg/mL | MIC ATB combined with Example 1 @8 μg/ml (PAE UFR48; with Example 1 @8 μg/ml): <0.031 µg/mL | MIC ATB combined with Example 1 @8 μg/ml (PAE UFR48; with Example 1 at 8 μg/ml): <0.031 µg/mL | MIC ATB combined with Example 7 @8 μgml (PAE UFR48; with Example 7 at 8 μg/ml): >32 µg/mL | MIC ATB combined with Example 9 @4 μg/ml (PAE UFR48; with Example 9 @4 μg/ml): 32 µg/mL | MIC ATB combined with Example 9 @4 μg/ml (PAE UFR48; with Example 9 at 4 μg/ml): 32 µg/mL | MIC ATB combined with Example 11 @8 μg/ml (PAE UFR48; with Example 11 at 8 μg/ml): 32 µg/mL | MIC ATB combined with Example 12 @8 μg/ml (PAE UFR48; with Example 12 at 8 μg/ml): 32 µg/mL | MIC ATB combined with Example 13 @8 μg/ml (PAE UFR48; with Example 13 at 8 μg/ml): 32 µg/mL | MIC ATB combined with Example 14 @8 μg/ml (PAE UFR48; with Example 14 at 8 μg/ml): 32 µg/mL | MIC ATB combined with Example 15 @4 μgml (PAE UFR48; with Example 15 at 4 μg/ml): 32 µg/mL | MIC ATB combined with Example 16 @4 μg/ml (PAE UFR48; with Example 16 at 4 μg/ml): 32 µg/mL | MIC ATB alone (PAE UFR90; antibiotic alone): 16 µg/mL | MIC ATB combined with Example 1 @8 μg/ml (PAE UFR90; with Example 1 @8 μg/ml): <0.031 µg/mL | MIC ATB combined with Example 1 @8 μg/ml (PAE UFR90; with Example 1 at 8 μg/ml): <0.031 µg/mL | MIC ATB combined with Example 7 @8 μgml (PAE UFR90; with Example 7 at 8 μg/ml): 32 µg/mL | MIC ATB combined with Example 9 @4 μg/ml (PAE UFR90; with Example 9 @4 μg/ml): 16 µg/mL | MIC ATB combined with Example 9 @4 μg/ml (PAE UFR90; with Example 9 at 4 μg/ml): 16 µg/mL | MIC ATB combined with Example 11 @8 μg/ml (PAE UFR90; with Example 11 at 8 μg/ml): 16 µg/mL | MIC ATB combined with Example 12 @8 μg/ml (PAE UFR90; with Example 12 at 8 μg/ml): 16 µg/mL | MIC ATB combined with Example 13 @8 μg/ml (PAE UFR90; with Example 13 at 8 μg/ml): 16 µg/mL | MIC ATB combined with Example 14 @8 μg/ml (PAE UFR90; with Example 14 at 8 μg/ml): 16 µg/mL | MIC ATB combined with Example 15 @4 μgml (PAE UFR90; with Example 15 at 4 μg/ml): 16 µg/mL | MIC ATB combined with Example 16 @4 μg/ml (PAE UFR90; with Example 16 at 4 μg/ml): 16 µg/mL | MIC ATB alone (PAE 105250; antibiotic alone): 8 µg/mL | MIC ATB combined with Example 1 @8 μg/ml (PAE 105250; with Example 1 @8 μg/ml): 0.5 µg/mL | MIC ATB combined with Example 1 @8 μg/ml (PAE 105250; with Example 1 at 8 μg/ml): 0.5 µg/mL | MIC ATB combined with Example 7 @8 μgml (PAE 105250; with Example 7 at 8 μg/ml): 32 µg/mL | MIC ATB combined with Example 9 @4 μg/ml (PAE 105250; with Example 9 @4 μg/ml): 8 µg/mL | MIC ATB combined with Example 9 @4 μg/ml (PAE 105250; with Example 9 at 4 μg/ml): 8 µg/mL | MIC ATB combined with Example 11 @8 μg/ml (PAE 105250; with Example 11 at 8 μg/ml): 8 µg/mL | MIC ATB combined with Example 12 @8 μg/ml (PAE 105250; with Example 12 at 8 μg/ml): 8 µg/mL | MIC ATB combined with Example 13 @8 μg/ml (PAE 105250; with Example 13 at 8 μg/ml): 8 µg/mL | MIC ATB combined with Example 14 @8 μg/ml (PAE 105250; with Example 14 at 8 μg/ml): 8 µg/mL | MIC ATB combined with Example 15 @4 μgml (PAE 105250; with Example 15 at 4 μg/ml): 8 µg/mL | MIC ATB combined with Example 16 @4 μg/ml (PAE 105250; with Example 16 at 4 μg/ml): 8 µg/mL | MIC ATB alone (ECL P99; antibiotic alone): 0.5 µg/mL | MIC ATB combined with Example 1 @8 μg/ml (ECL P99; with Example 1 @8 μg/ml): <0.031 µg/mL | MIC ATB combined with Example 1 @8 μg/ml (ECL P99; with Example 1 at 8 μg/ml): <0.031 µg/mL | MIC ATB combined with Example 7 @8 μgml (ECL P99; with Example 7 at 8 μg/ml): 0.25 µg/mL | MIC ATB combined with Example 9 @4 μg/ml (ECL P99; with Example 9 @4 μg/ml): <0.031 µg/mL | MIC ATB combined with Example 9 @4 μg/ml (ECL P99; with Example 9 at 4 μg/ml): <0.031 µg/mL | MIC ATB combined with Example 11 @8 μg/ml (ECL P99; with Example 11 at 8 μg/ml): <0.031 µg/mL | MIC ATB combined with Example 12 @8 μg/ml (ECL P99; with Example 12 at 8 μg/ml): <0.031 µg/mL | MIC ATB combined with Example 13 @8 μg/ml (ECL P99; with Example 13 at 8 μg/ml): 0.25 µg/mL | MIC ATB combined with Example 14 @8 μg/ml (ECL P99; with Example 14 at 8 μg/ml): <0.031 µg/mL | MIC ATB combined with Example 15 @4 μgml (ECL P99; with Example 15 at 4 μg/ml): <0.031 µg/mL | MIC ATB combined with Example 16 @4 μg/ml (ECL P99; with Example 16 at 4 μg/ml): <0.031 µg/mL
